Patent US11053251B2, “GPR35 modulators” (Prometheus Biosciences, Inc., priority 2019, dated 2021)

What follows are compounds tested against Human GPR35 (Homo sapiens, UniProt Q9HC97, S294R) (assay: Alternative Beta-Arrestin Assay (JumpIn 294R Tango U2OS cells, LiveBLAzer-FRET B/G)). Conditions: Human GPR35 expressing JumpIn 294R Tango U2OS cells, 5 hours treatment.
Type: cell-based
Method in brief: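 Beta-arrestin recruitment measured as FRET ratio change using CCF4-AM loading for 2 h, following 5-hour compound treatment of GPR35 (S294R) JumpIn Tango U2OS cells. Zaprinast served as positive control; EC50 values from four-parameter dose-response fits.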

Sequence of Human GPR35 (Q9HC97 whole entry S294R): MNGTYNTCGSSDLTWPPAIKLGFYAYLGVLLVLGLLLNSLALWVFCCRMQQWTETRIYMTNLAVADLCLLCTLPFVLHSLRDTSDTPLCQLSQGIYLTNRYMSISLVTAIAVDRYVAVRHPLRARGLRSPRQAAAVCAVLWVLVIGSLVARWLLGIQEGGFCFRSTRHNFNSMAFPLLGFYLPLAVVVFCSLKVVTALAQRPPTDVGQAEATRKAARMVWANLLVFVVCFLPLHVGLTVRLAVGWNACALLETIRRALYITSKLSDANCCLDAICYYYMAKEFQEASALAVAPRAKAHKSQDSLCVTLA

EC50	SMILES
≤ 10 µM	O=C(O)c1cc(-c2ccc(-c3nc4[nH]nnc4c(=O)[nH]3)c(OC3CCCC3)c2)ccc1O [Compound 200, 3′-(Cyclopentyloxy)-4-hydroxy-4′-(7-oxo-6,7-dihydro-3H-[1,2,3]triazolo[4,5-d]pyrimidin-5-yl)-[1,1′-biphenyl]-3-carboxylic acid]
≤ 10 µM	CCOc1cc(-c2cccc(O[C@@H](CC)C(=O)O)c2)ccc1-c1nc2[nH]nnc2c(=O)[nH]1 (single isomer, unassigned) [Compound 254]
≤ 10 µM	O=C(O)c1ccc(-c2ccc(-c3nc4[nH]nnc4c(=O)[nH]3)c(OC3CCCC3)c2)cn1 [Compound 233, 5-(3-(Cyclopentyloxy)-4-(7-oxo-6,7-dihydro-3H-[1,2,3]triazolo[4,5-d]pyrimidin-5-yl)phenyl)picolinic acid]
≤ 10 µM	CCOc1cc(-c2ccc(C(=O)O)c(F)c2)ccc1-c1nc2[nH]nnc2c(=O)[nH]1 [Compound 205, 3′-Ethoxy-3-fluoro-4′-(7-oxo-6,7-dihydro-3H-[1,2,3]triazolo[4,5-d]pyrimidin-5-yl)-[1,1′-biphenyl]-4-carboxylic acid]
≤ 10 µM	CC(Oc1cccc(-c2ccc(-c3nc4[nH]nnc4c(=O)[nH]3)c(OC3CCCC3)c2)c1)C(=O)O (stereo not shown) [Compound 250, 2-((3′-(cyclopentyloxy)-4′-(7-oxo-6,7-dihydro-3H-[1,2,3]triazolo[4,5-d]pyrimidin-5-yl)-[1,1′-biphenyl]-3-yl)oxy)propanoic acid]
≤ 10 µM	CCOc1cc(-c2cc(F)cc(O[C@@H](C)C(=O)O)c2)ccc1-c1nc2[nH]nnc2c(=O)[nH]1 (single isomer, unassigned) [Compound 263]
≤ 10 µM	CCOc1cc(-c2ccc(OC)c(/C=C(\C)C(=O)O)c2)ccc1-c1nc2[nH]nnc2c(=O)[nH]1 [Compound 315, (E)-3-(3′-ethoxy-4-methoxy-4′-(7-oxo-6,7-dihydro-3H-[1,2,3]triazolo[4,5-d]pyrimidin-5-yl)-[1,1′-biphenyl]-3-yl)-2-methylacrylic acid]
≤ 10 µM	CCOc1cc(-c2cccc(NC)c2)ccc1-c1nc2[nH]nnc2c(=O)[nH]1 [Compound 232, 5-(3-Ethoxy-3′-(methylamino)-[1,1′-biphenyl]-4-yl)-3,6-dihydro-7H-[1,2,3]triazolo[4,5-d]pyrimidin-7-one]
≤ 10 µM	CCOc1cc(-c2cccc(C[C@H](N)C(=O)O)c2)ccc1-c1nc2[nH]nnc2c(=O)[nH]1 [Compound 274, (S)-2-amino-3-(3′-ethoxy-4′-(7-oxo-6,7-dihydro-3H-[1,2,3]triazolo[4,5-d]pyrimidin-5-yl)-[1,1′-biphenyl]-3-yl)propanoic acid]
≤ 10 µM	CCOc1cc(-c2cc(O)cc(O[C@H](C)C(=O)O)c2)ccc1-c1nc2[nH]nnc2c(=O)[nH]1 (single isomer, unassigned) [Compound 255]
≤ 10 µM	CCOc1cc(-c2cccc(CC(CC)C(=O)O)c2)ccc1-c1nc2[nH]nnc2c(=O)[nH]1 (single isomer, unassigned) [Compound 241, 2-((3′-ethoxy-4′-(7-oxo-6,7-dihydro-3H-[1,2,3]triazolo[4,5-d]pyrimidin-5-yl)-[1,1′-biphenyl]-3-yl)methyl)butanoic acid]
≤ 10 µM	CCOc1cc(-c2cc(O)cc(C(=O)O)c2)ccc1-c1nc2[nH]nnc2c(=O)[nH]1 [Compound 198, 3′-Ethoxy-5-hydroxy-4′-(7-oxo-6,7-dihydro-3H-[1,2,3]triazolo[4,5-d]pyrimidin-5-yl)-[1,1′-biphenyl]-3-carboxylic acid]
≤ 10 µM	CCOc1cc(-c2ccc(F)c(O[C@H](C)C(=O)O)c2)ccc1-c1nc2[nH]nnc2c(=O)[nH]1 [Compound 264, (R)-2-((3′-ethoxy-4-fluoro-4′-(7-oxo-6,7-dihydro-3H-[1,2,3]triazolo[4,5-d]pyrimidin-5-yl)-[1,1′-biphenyl]-3-yl)oxy)propanoic acid]
≤ 10 µM	CCOc1cc(-c2cccc(C[C@@H](N)C(=O)O)c2)ccc1-c1nc2[nH]nnc2c(=O)[nH]1 [Compound 275, (R)-2-amino-3-(3′-ethoxy-4′-(7-oxo-6,7-dihydro-3H-[1,2,3]triazolo[4,5-d]pyrimidin-5-yl)-[1,1′-biphenyl]-3-yl)propanoic acid]
≤ 10 µM	CCCC(Oc1cccc(-c2ccc(-c3nc4[nH]nnc4c(=O)[nH]3)c(OCC)c2)c1)C(=O)O (stereo not shown) [Compound 248, 2-((3′-ethoxy-4′-(7-oxo-6,7-dihydro-3H-[1,2,3]triazolo[4,5-d]pyrimidin-5-yl)-[1,1′-biphenyl]-3-yl)oxy)pentanoic acid]
≤ 10 µM	CCOc1cc(-c2cccc([C@H]3C[C@@H]3C(=O)O)c2)ccc1-c1nc2[nH]nnc2c(=O)[nH]1 (racemic) [Compound 277, rac-trans-2-(3′-ethoxy-4′-(7-oxo-6,7-dihydro-3H-[1,2,3]triazolo[4,5-d]pyrimidin-5-yl)-[1,1′-biphenyl]-3-yl)cyclopropane-1-carboxylic acid]
≤ 10 µM	CCOc1cc(-c2ccc(OCCN3CCCC3)c(/C=C(\C)C(=O)O)c2)ccc1-c1nc2[nH]nnc2c(=O)[nH]1 [Compound 299, (E)-3-(3′-ethoxy-4′-(7-oxo-6,7-dihydro-3H-[1,2,3]triazolo[4,5-d]pyrimidin-5-yl)-4-(2-(pyrrolidin-1-yl)ethoxy)-[1,1′-biphenyl]-3-yl)-2-methylacrylic acid]
≤ 10 µM	O=C(O)c1ccc(-c2ccc(-c3nc4[nH]nnc4c(=O)[nH]3)c(OC3CCCC3)c2)cc1 [Compound 194, 3′-(Cyclopentyloxy)-4′-(7-oxo-6,7-dihydro-3H-[1,2,3]triazolo[4,5-d]pyrimidin-5-yl)-[1,1′-biphenyl]-4-carboxylic acid]
≤ 10 µM	CCOc1cc(-c2cccc(CC(CC)C(=O)O)c2)ccc1-c1nc2[nH]nnc2c(=O)[nH]1 (stereo not shown) [Compound 239, 2-((3′-ethoxy-4′-(7-oxo-6,7-dihydro-3H-[1,2,3]triazolo[4,5-d]pyrimidin-5-yl)-[1,1′-biphenyl]-3-yl)methyl)butanoic acid]
≤ 10 µM	CCOc1cc(-c2ccc(C(=O)OCc3oc(=O)oc3C)cc2)ccc1-c1nc2nn[nH]c2c(=O)[nH]1 [Compound 193, (5-Methyl-2-oxo-1,3-dioxol-4-yl)methyl 3′-ethoxy-4′-(7-oxo-6,7-dihydro-3H-[1,2,3]triazolo[4,5-d]pyrimidin-5-yl)-[1,1′-biphenyl]-4-carboxylate]
≤ 10 µM	CCOc1cc(-c2ccc(O)c(NCC(=O)O)c2)ccc1-c1nc2[nH]nnc2c(=O)[nH]1 [Compound 222, (3′-Ethoxy-4-hydroxy-4′-(7-oxo-6,7-dihydro-3H-[1,2,3]triazolo[4,5-d]pyrimidin-5-yl)-[1,1′-biphenyl]-3-yl)glycine]
≤ 10 µM	CCOc1cc(-c2cc(F)c(F)c(O[C@H](C)C(=O)O)c2)ccc1-c1nc2[nH]nnc2c(=O)[nH]1 (single isomer, unassigned) [Compound 260]
≤ 10 µM	CCOc1cc(-c2cccc(O[C@@H](C)C(=O)O)c2)ccc1-c1nc2[nH]nnc2c(=O)[nH]1 (single isomer, unassigned) [Compound 252]
≤ 10 µM	CCOc1cc(-c2ccc3c(c2)CC(C)(C)C(=O)O3)ccc1-c1nc2[nH]nnc2c(=O)[nH]1 [Compound 305, 5-(4-(3,3-dimethyl-2-oxochroman-6-yl)-2-ethoxyphenyl)-3,6-dihydro-7H-[1,2,3]triazolo[4,5-d]pyrimidin-7-one]
≤ 10 µM	CCOc1cc(-c2cc(O)cc(O[C@@H](CC)C(=O)O)c2)ccc1-c1nc2[nH]nnc2c(=O)[nH]1 (single isomer, unassigned) [Compound 259]
